Test systems include SR; M14; UACC-257; HOP-92; SF-268; U-251; HCT-116; NCI-H460; A549; HCC 2998; A498; UO-31; SK-OV-3; IGROV-1; CAKI-1; SK-MEL-28; NCI/ADR-RES; SF-539; LOX IMVI; SF-295.
What all share (test): DTP human tumour cell line panel, 48 h

The source of these data is ChEMBL document CHEMBL1201862, “PubChem BioAssay data set” (2004).

As usually defined, the GI50 is the concentration that inhibits growth by half.

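1) Cells in 96-well plates. 2) Compound, 48 h, 5 concentrations. 3) Linear interpolation between surrounding doses. 4) Unreached endpoint = highest concentration. The concentration for 50% growth inhibition is given as GI50.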 The source made the active and inactive calls. Rule as the data show it: active = GI50 up to about 1.1 µM and inactive = higher. Some results are limits rather than exact numbers.

In the case of `COC(=O)N[C@H](C(=O)NC(OCc1ccccc1)C1COC(C)(C)O1)C(C)O[Si](C)(C)C(C)(C)C` (some centres not stated), the GI50 was 26.4 µM (inactive) with SR; > 100 µM (inactive) in the assay with M14; 59.4 µM (inactive) in the assay on UACC-257; 70 µM (inactive) in the assay with HOP-92; > 100 µM (inactive) with SF-268; 88.7 µM (inactive) in the assay with U-251. Also, the GI50 was > 100 µM (inactive) in the assay on HCT-116; 57.3 µM (inactive) in the assay with NCI-H460; > 100 µM (inactive) with A549; 77.8 µM (inactive) in the assay with HCC 2998; > 100 µM (inactive) in the assay on A498; > 100 µM (inactive) in the assay on UO-31. The GI50 is > 100 µM (inactive) in the assay with SK-OV-3; > 100 µM (inactive) in the assay on IGROV-1; 96.2 µM (inactive) in the assay with CAKI-1; > 100 µM (inactive) in the assay on SK-MEL-28; > 100 µM (inactive) in the assay on NCI/ADR-RES.

`CN(C)CCCNC(=S)S`: the GI50 in the assay on SR, in the assay with SF-539, in the assay on M14, in the assay on LOX IMVI, in the assay on UACC-257 and in the assay with HOP-92 was > 100 µM (inactive) throughout. The GI50 in the assay with SF-268, with U-251, with HCT-116, with NCI-H460, with A549 and in the assay with A498 was > 100 µM (inactive) in each case. In addition, the GI50 with SK-OV-3, with IGROV-1, in the assay on SF-295, in the assay with CAKI-1, in the assay with SK-MEL-28 and with NCI/ADR-RES was > 100 µM (inactive) each time.

Take `CCOC(=O)c1sc2nc(SC)nc(N3CCCCC3)c2c1N`: the GI50 in the assay with SR is > 100 µM (inactive); with M14, > 100 µM (inactive); in the assay with LOX IMVI it was > 100 µM (inactive); in the assay on UACC-257 it was 5.07 µM (inactive); in the assay on HOP-92 it was > 100 µM (inactive); in the assay with SF-268, > 100 µM (inactive). The GI50 in the assay on U-251, with HCT-116, with NCI-H460, in the assay on A549, in the assay on HCC 2998 and in the assay with A498 was > 100 µM (inactive) in each case. The GI50 in the assay on UO-31, in the assay on SK-OV-3, in the assay with IGROV-1, in the assay on SF-295, with CAKI-1 and in the assay on SK-MEL-28 was > 100 µM (inactive) each time. The GI50 with NCI/ADR-RES was > 100 µM (inactive).

In the case of `Cn1c(=O)c(Cl)c(N=[N+]=[N-])c2ccccc21`, the GI50 in the assay on SR is 58.5 µM (inactive); with SF-539, > 100 µM (inactive); in the assay on LOX IMVI, 55.7 µM (inactive); in the assay on UACC-257, > 100 µM (inactive); in the assay on HOP-92, 84.1 µM (inactive); in the assay on SF-268 it was > 100 µM (inactive). The GI50 in the assay on U-251 is > 100 µM (inactive); in the assay on HCT-116 it was 93.8 µM (inactive); in the assay on NCI-H460, > 100 µM (inactive); in the assay with A549, 94.4 µM (inactive); with HCC 2998, > 100 µM (inactive); with A498, > 100 µM (inactive). For the same compound, the GI50 in the assay on UO-31 was > 100 µM (inactive); in the assay on SK-OV-3, > 100 µM (inactive); in the assay with IGROV-1, > 100 µM (inactive); in the assay with SF-295 it was > 100 µM (inactive); with CAKI-1, 78.7 µM (inactive); in the assay on SK-MEL-28 it was > 100 µM (inactive). Moreover, the GI50 in the assay with NCI/ADR-RES is > 100 µM (inactive).

`CSc1sc(C)cc1-c1nsc(=O)o1`: the GI50 in the assay with SR, in the assay on M14, in the assay on LOX IMVI, in the assay on UACC-257, in the assay on HOP-92 and with SF-268 was > 100 µM (inactive) throughout. For the same compound, the GI50 in the assay on U-251, in the assay with HCT-116, in the assay on NCI-H460, in the assay with A549, with HCC 2998 and with A498 was > 100 µM (inactive) throughout. In addition, the GI50 with UO-31, with IGROV-1, with SF-295, in the assay on CAKI-1, with SK-MEL-28 and with NCI/ADR-RES was > 100 µM (inactive) each time.

`COc1nc(N=P(c2ccccc2)(c2ccccc2)c2ccccc2)cc(=O)n1C`: the 50% growth inhibitory concentration (GI50) was 0.0233 µM (active) in the assay on SR; > 100 µM (inactive) in the assay with SF-539; > 100 µM (inactive) with M14; > 100 µM (inactive) in the assay on LOX IMVI; > 100 µM (inactive) in the assay with UACC-257; > 100 µM (inactive) with HOP-92. Also, the GI50 in the assay with SF-268, with U-251, in the assay with HCT-116, in the assay on NCI-H460, with A549 and in the assay with HCC 2998 was > 100 µM (inactive) throughout. Further, the GI50 with A498, with UO-31, in the assay on SK-OV-3, in the assay with IGROV-1, with SF-295 and in the assay with CAKI-1 was > 100 µM (inactive) throughout. Moreover, the GI50 in the assay with SK-MEL-28 and in the assay on NCI/ADR-RES was > 100 µM (inactive) each time.

With `N=c1n(C(=O)N2CCCC2)c2cc(Cl)ccc2n1C1=NCCN1`, the GI50 in the assay on SR is 38.2 µM (inactive); with SF-539 it was 55.2 µM (inactive); in the assay on M14, 59.6 µM (inactive); with LOX IMVI it was 28.3 µM (inactive); with UACC-257, > 100 µM (inactive); in the assay with HOP-92, 15.2 µM (inactive). In addition, the GI50 in the assay on SF-268 was > 100 µM (inactive); in the assay with U-251 it was 83.2 µM (inactive); with HCT-116 it was 55.5 µM (inactive); in the assay with NCI-H460 it was > 100 µM (inactive); in the assay with A549, > 100 µM (inactive); with HCC 2998, > 100 µM (inactive). The GI50 with A498 was > 100 µM (inactive); in the assay with SK-OV-3 it was > 100 µM (inactive); with IGROV-1, 73.3 µM (inactive); in the assay on SF-295, > 100 µM (inactive); with CAKI-1, 43.2 µM (inactive); in the assay with SK-MEL-28 it was 95.3 µM (inactive). Moreover, the GI50 with NCI/ADR-RES was 93.5 µM (inactive).

As for `CC(O)(P(=O)(O)O)P(=O)(O)OCC(O)CN1CCOCC1` (configuration not stated), the GI50 was > 100 µM (inactive) with SR; 95.1 µM (inactive) in the assay with SF-539; > 100 µM (inactive) in the assay with M14; > 100 µM (inactive) in the assay on LOX IMVI; > 100 µM (inactive) with UACC-257; > 100 µM (inactive) in the assay on HOP-92. In addition, the GI50 in the assay with SF-268, in the assay on U-251, in the assay on HCT-116, with NCI-H460, in the assay with A549 and with HCC 2998 was > 100 µM (inactive) throughout. The GI50 with A498, in the assay on UO-31, in the assay with SK-OV-3, in the assay on IGROV-1, with SF-295 and in the assay with CAKI-1 was > 100 µM (inactive) each time. Also, the GI50 in the assay on SK-MEL-28 and in the assay with NCI/ADR-RES was > 100 µM (inactive) each time.

On to `Sc1ncc(-c2cncc(-c3cnc(S)nc3)n2)cn1`, for which the GI50 with SR is 85.1 µM (inactive); with SF-539, > 100 µM (inactive); in the assay with M14, > 100 µM (inactive); in the assay with UACC-257, > 100 µM (inactive); in the assay on HOP-92 it was > 100 µM (inactive); in the assay on SF-268 it was > 100 µM (inactive). Also, the GI50 in the assay on U-251 was > 100 µM (inactive); in the assay with HCT-116 it was > 100 µM (inactive); with NCI-H460 it was > 100 µM (inactive); in the assay with A549, > 100 µM (inactive); in the assay with HCC 2998 it was > 100 µM (inactive); with A498, 52.2 µM (inactive). In addition, the GI50 with UO-31, in the assay with SK-OV-3, with IGROV-1, in the assay on SF-295, in the assay with CAKI-1 and with SK-MEL-28 was > 100 µM (inactive) each time. For the same compound, the GI50 in the assay on NCI/ADR-RES is > 100 µM (inactive).

Regarding `CC1=CC(=O)CC2(C)CCC(C(C)CC(=O)CC(C)C)CC12` (configuration not stated), the GI50 is 20 µM (inactive) in the assay with SR; 16.4 µM (inactive) in the assay with SF-539; 17.2 µM (inactive) with M14; 18.9 µM (inactive) in the assay with LOX IMVI; 23.9 µM (inactive) in the assay with UACC-257; 31.4 µM (inactive) in the assay with HOP-92. Besides, the GI50 with SF-268 was 55.8 µM (inactive); in the assay on U-251 it was 41.9 µM (inactive); in the assay with HCT-116, 16.1 µM (inactive); in the assay on NCI-H460 it was 32.4 µM (inactive); in the assay on A549 it was 17.8 µM (inactive); in the assay on A498 it was > 100 µM (inactive). Besides, the GI50 is 31.2 µM (inactive) in the assay with UO-31; 26.2 µM (inactive) with IGROV-1; 32.5 µM (inactive) in the assay on SF-295; 16.4 µM (inactive) in the assay on CAKI-1; 26 µM (inactive) in the assay on SK-MEL-28; 29.6 µM (inactive) in the assay on NCI/ADR-RES.

Regarding `Brc1cc(CCOC2CCCCO2)c(-c2sccc2CCOC2CCCCO2)s1` (configuration not stated), the GI50 in the assay on SR is 9.75 µM (inactive); in the assay on SF-539 it was 55.5 µM (inactive); in the assay on M14, 31.8 µM (inactive); in the assay with LOX IMVI it was 26.3 µM (inactive); with UACC-257 it was 35.5 µM (inactive); with HOP-92, > 65.2 µM (inactive). The GI50 with SF-268 is 53.6 µM (inactive); with U-251, 57.8 µM (inactive); in the assay with HCT-116, 23.2 µM (inactive); with NCI-H460, 33.4 µM (inactive); in the assay on A549, 24.8 µM (inactive); with HCC 2998 it was 31.9 µM (inactive). Moreover, the GI50 with A498 was > 69 µM (inactive); with UO-31, 14 µM (inactive); with SK-OV-3, > 69.2 µM (inactive); in the assay with IGROV-1, 53.2 µM (inactive); in the assay on SF-295, 18.7 µM (inactive); in the assay on CAKI-1, > 91.4 µM (inactive). For the same compound, the GI50 was > 95.1 µM (inactive) in the assay on SK-MEL-28 and 40.7 µM (inactive) with NCI/ADR-RES.
